# Reference: patent US8362064B2, “Sulfonamide compounds for the treatment of respiratory disorders” (Pulmagen Theraputics (Inflammation) Limited, priority 2008, dated 2013)
# Where two headings read alike, the source gives them in different places. Marks after values point to notes of the source that are not given here.
# What was measured:
# [1] = test system: TS induced BAL neutrophil influx; test: Pre-clinical mouse model of COPD inflammation (tobacco smoke induced pulmonary inflammation), BAL neutrophil counts; type: in vivo; settings: mice; for Inhibition of TS induced BAL neutrophil influx: BAL 24 h after final TS; for TS induced influx of neutrophils in the BAL (in words): administered by a surrogate route for inhalation (intra-nasal)
# Procedure: Protocols for the exposure of mice to TS, obtaining bronchoalveolar lavage (BAL), preparation of cytospin slides for differential cell counts are as outlined below.
# In this exposure protocol, mice were exposed in groups of 5 in individual clear polycarbonate chambers (27 cm×16 cm×12 cm). The TS from the cigarettes was allowed to enter the exposure chambers at a flow rate of 100 mL/min. In order to minimize any potential problems caused by repeated exposure to a high level of TS (6 cigarettes), the exposure of the mice to TS was increased gradually over the exposure period to a maximum of 6 cigarettes. The exposure schedule used for 4 days was as follows:
# A further group of mice was exposed to air on a daily basis for an equivalent length of time as controls (no TS exposure).
# Bronchoalveolar lavage was performed as follows: the trachea was cannulated using a Portex nylon intravenous cannula (pink luer fitting) shortened to approximately 8 mm. Phosphate buffered saline (PBS) was used as the lavage fluid. A volume of 0.4 mL was gently instilled and withdrawn 3 times using a 1 mL syringe and then placed in an Eppendorf tube and kept on ice prior to subsequent determinations.
# Lavage fluid was separated from cells by centrifugation and the supernatant decanted and frozen for subsequent analysis. The cell pellet was re-suspended in a known volume of PBS and total cell numbers calculated by counting a stained (Turks stain) aliquot under a microscope using a haemocytometer.
# The residual cell pellet was diluted to approximately 10^5 cells per mL. A volume of 500 μL was placed in the funnel of a cytospin slide and centrifuged for 8 min at 800 rpm. The slide was air dried and stained using ‘Kwik-Diff’ solutions (Shandon) as per the proprietary instructions. When dried and cover-slipped, differential cells were counted using light microscopy. Up to 400 cells were counted by unbiased operator using light microscopy. Cells were differentiated using standard morphometric techniques.
# Mice were dosed intra-nasally (surrogate for oral inhalation) with vehicle (0.2% tween 80 in saline), Example 1 (0.1 mg/kg), Example 10 (0.1 mg/kg), Example 10 (0.03 mg/kg), or Example 10 (0.01 mg/kg), at 3 hours prior to tobacco smoke exposure each day. The control group of mice received vehicle 3 hrs prior to being exposed to air daily for a maximum of 50 minutes per day. BAL was performed 24 h following the final TS exposure.
# In a separate experiment, mice were dosed intra-nasally (surrogate for oral inhalation) with either vehicle (0.2% tween 80 in saline), Example 7 (0.1 mg/kg), Compound 7 (0.03 mg/kg), Example 15 (0.1 mg/kg), or Example 15 (0.03 mg/kg), 1 hour prior to tobacco smoke exposure each day. The control group of mice received vehicle 1 hr prior to being exposed to air daily for a maximum of 50 minutes per day. BAL was performed 24 h following the final TS exposure.
# All results are presented as individual data points for each animal and the mean value was calculated for each group. Since tests for normality were positive the data was subjected to a one way analysis of variance test (ANOVA), followed by a Bonferroni correction for multiple comparisons in order to test for significance between treatment groups. A “p” value of <0.05 was considered to be statistically significant. Percentage inhibitions were automatically calculated within the Excel spreadsheets for the cell data using the formula below:
# [formula] Inhibition data for other parameters were calculated manually using the above formula.
# [2] = molecular target: T1, human PPARγ (Homo sapiens, UniProt P37231); test: Human PPAR gamma agonist activity, GAL4-luciferase transactivation in transfected HEK-293 cells; type: cell-based; settings: fold increase in gene transactivation (luciferase), 18 hours incubation, classes at 10 μM or 1 μM
# T1 construct: expressed in transfected cells; host or cells: HEK-293 (Human Embryonic Kidney) cells
# T1 sequence (P37231 1-505): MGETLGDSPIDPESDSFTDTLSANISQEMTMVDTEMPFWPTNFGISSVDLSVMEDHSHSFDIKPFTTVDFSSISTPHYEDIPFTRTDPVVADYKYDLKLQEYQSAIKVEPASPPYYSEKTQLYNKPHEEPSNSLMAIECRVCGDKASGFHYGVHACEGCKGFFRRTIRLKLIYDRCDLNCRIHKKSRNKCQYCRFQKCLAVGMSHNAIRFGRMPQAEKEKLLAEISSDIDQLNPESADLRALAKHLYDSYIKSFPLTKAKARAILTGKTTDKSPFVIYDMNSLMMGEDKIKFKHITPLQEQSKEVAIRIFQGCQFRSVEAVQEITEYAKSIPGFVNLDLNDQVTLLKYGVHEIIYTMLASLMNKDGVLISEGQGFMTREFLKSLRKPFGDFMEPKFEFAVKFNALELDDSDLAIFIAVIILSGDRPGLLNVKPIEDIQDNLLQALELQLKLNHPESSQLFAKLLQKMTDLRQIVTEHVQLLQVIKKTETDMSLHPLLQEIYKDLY
# Procedure: HEK-293 (Human Embryonic Kidney) cells were seeded at a density of 2.8×10^5 cells/well in a 6 well plate in DMEM +10% delipidated FBS medium and incubated at 37° C., 5% CO2. At 70-80% confluency cells were transfected with human pCDNA3.1E˜PPARγ+pGL2˜GAL4x5˜Luc+pADV plasmids for 3 hours (ratio 2:0.25:1.25 μg/well). The transfection medium was then replaced with fresh medium and cells were incubated for 48 hours.
# Varying final concentrations of compounds (vehicle=0.1% DMSO) of the invention were prepared in medium (50 μl/well) and added to the wells in a 96 well plate. Transfected cells were harvested and pelleted by centrifugation. The cell pellet was resuspended in medium and cells counted. 10,000 cells/well were added to the 96 well plate containing compounds of the invention and incubated for 18 hours. Luminescence produced following agonism of the PPAR gamma receptor was determined using Packard luciferase substrate reagent (100 μl/well). Light emission was quantified by counting SPC mode using a Top Count. Fold activation was calculated using the following formula: […]
# All compounds show activity as PPAR gamma agonists at 30 μM. Key for relative activity: • *<8 fold increase in gene transactivation with 10 μM • **>8 fold increase in gene transactivation with 10 μM • ***>8 fold increase in gene transactivation with 1 μM.
# [3] = In vivo pharmacokinetic study, plasma AUC after oral and i.v. dosing; set-up: species or system male Wistar rats; settings: for plasma AUC following i.v. dosing (in words) / oral bioavailability (in words) / AUC: rat; for oral bioavailability (in words): oral vs i.v. plasma AUC; for AUC: plasma
# Procedure: The suitability of the compounds exemplified in Examples 7, 10 and 15 above for inhalation for the treatment of lung diseases was examined by standard in vivo pharmacokinetic studies using male Wistar rats as known in the art. […] A single 1 mg/kg dose of Example 7, Example 10 and Example 15 was administered in 10% DMSO, 10% Cremophor ELP, 10% PEG 400, 10% EtOH and 60% Milli Q Water by the intravenous (IV) route and plasma samples taken 15 minutes, 30 minutes, 1 hour, 2 hours, 3 hours, 5 hours, 8 hours, 10 hours and 24 hours. Concentrations of Example 7, Example 10 and Example 15 in the various plasma samples were determined using standard analytical procedures.
# Standard pharmacokinetic parameters following IV or oral dosing were calculated from the plasma concentration data, including Area under the curve (AUC), maximum plasma concentration (Cmax), time of maximum plasma concentration (Tmax), Elimination time (Kel) and plasma half-life (T½).
# Compounds suitable for inhalation for the treatment of lung diseases have low plasma AUC following i.v. dosing indicating reduced likelihood of systemic side effects. Compounds suitable for inhalation for the treatment of lung diseases also have low oral bioavailability indicated by a much lower plasma AUC following oral dosing as that achieved by i.v. dosing. Low oral bioavailability leads to only a small fraction of the swallowed drug following inhalation being absorbed into the plasma, further reducing the likelihood of systemic side effects.
# [4] = rat, cited from earlier work
# [5] = 0.1 mg/kg intra-nasally 3 hours prior to TS exposure each day for 4 days
# [6] = 0.03 mg/kg intra-nasally 1 hour prior to TS exposure each day for 4 days
# [7] = 0.1 mg/kg intra-nasally 1 hour prior to TS exposure each day for 4 days
# [8] = iv, male Wistar rats, single 1 mg/kg i.v. dose, read-out: Plasma AUC following 1 mg/kg i.v. dose
# [9] = male Wistar rats, derived from 5 mg/kg oral dose PK data, read-out: Plasma AUC following 1 mg/kg oral dose
compound,measurement,setting,value
"Cc1ccc(-n2cc(Oc3ccc(NS(=O)(=O)c4ccc(Cl)cc4Cl)cc3)cn2)cc1 [Example 1, 2,4-dichloro-N-[4-(1-p-tolyl-1H-pyrazol-4-yloxy)-phenyl]benzene sulfonamide]",Inhibition of TS induced BAL neutrophil influx,[1]; [5],72%
same,TS induced influx of neutrophils in the BAL (in words),[1],significantly inhibit
same,PPARγ agonist activity,[2],*** (>8 fold increase in gene transactivation with 1 μM)
same,melting point,,152 to 153 °C
O=S(=O)(Nc1cc(Cl)c(Oc2cnn(-c3ccc(F)cc3F)c2)c(Cl)c1)c1ccc(Cl)cc1Cl [Example 3],PPARγ agonist activity,[2],*** (>8 fold increase in gene transactivation with 1 μM)
O=S(=O)(Nc1cc(Cl)c(Oc2cnn(-c3ccc(F)cc3)c2)c(Cl)c1)c1ccc(Cl)cc1Cl [Example 4],PPARγ agonist activity,[2],*** (>8 fold increase in gene transactivation with 1 μM)
O=S(=O)(Nc1ccc(Oc2cnn(-c3ccc(F)cc3)c2)c(Cl)c1)c1ccc(Cl)cc1Cl [Example 5],PPARγ agonist activity,[2],*** (>8 fold increase in gene transactivation with 1 μM)
O=S(=O)(Nc1ccc(Oc2cnn(-c3ccc(Cl)cc3)c2)c(Cl)c1)c1ccc(Cl)cc1Cl [Example 6],PPARγ agonist activity,[2],*** (>8 fold increase in gene transactivation with 1 μM)
O=S(=O)(Nc1ccc(Oc2cnn(-c3ccc(F)c(Cl)c3)c2)c(Cl)c1)c1ccc(Cl)cc1Cl [Example 7],Inhibition of TS induced BAL neutrophil influx,[1]; [6],37%
same,Inhibition of TS induced BAL neutrophil influx,[1]; [7],64%
same,TS induced influx of neutrophils in the BAL (in words),[1],significantly inhibit
same,PPARγ agonist activity,[2],** (>8 fold increase in gene transactivation with 10 μM)
same,plasma AUC following i.v. dosing (in words),[3],low
same,oral bioavailability (in words),[3],low
same,AUC,[3]; [8],1080 ± 240 ng·h/mL
same,AUC,[3]; [9],40 ± 8 ng·h/mL
Cc1ccc(S(=O)(=O)Nc2ccc(Oc3cnn(-c4ccc(F)cc4)c3)c(Cl)c2)cc1 [Example 8],PPARγ agonist activity,[2],** (>8 fold increase in gene transactivation with 10 μM)
Cc1cc(NS(=O)(=O)c2ccc(Cl)cc2Cl)ccc1Oc1cnn(-c2ccc(F)cc2)c1 [Example 9],PPARγ agonist activity,[2],*** (>8 fold increase in gene transactivation with 1 μM)
Cc1ccc(-n2cc(Oc3ccc(NS(=O)(=O)c4ccc(Cl)cc4Cl)cc3)cn2)c(C)c1 [Example 10],Inhibition of TS induced BAL neutrophil influx,[1]; 0.01 mg/kg intra-nasally 3 hours prior to TS exposure each day for 4 days,42%
same,Inhibition of TS induced BAL neutrophil influx,[1]; 0.03 mg/kg intra-nasally 3 hours prior to TS exposure each day for 4 days,50%
same,Inhibition of TS induced BAL neutrophil influx,[1]; [5],72%
same,TS induced influx of neutrophils in the BAL (in words),[1],significantly inhibit
same,PPARγ agonist activity,[2],*** (>8 fold increase in gene transactivation with 1 μM)
same,Plasma AUC following 1 mg/kg oral dose,"[3]; male Wistar rats, oral gavage (5 mg/kg given), limit of detection was 5 ng/ml",None
same,plasma AUC following i.v. dosing (in words),[3],low
same,oral bioavailability (in words),[3],low
same,AUC,[3]; [8],210 ± 60 ng·h/mL
Cc1ccc(-n2cc(Oc3ccc(NS(=O)(=O)c4ccc(C)cc4)cc3)cn2)cc1 [Example 11],PPARγ agonist activity,[2],* (<8 fold increase in gene transactivation with 10 μM)
O=S(=O)(Nc1ccc(Oc2cnn(-c3ccc(F)cc3)c2)c(Cl)c1)c1ccccc1 [Example 12],PPARγ agonist activity,[2],* (<8 fold increase in gene transactivation with 10 μM)
O=S(=O)(Nc1ccc(Oc2cnn(-c3ccccc3)c2)c(Cl)c1)c1ccc(Cl)cc1Cl [Example 13],PPARγ agonist activity,[2],*** (>8 fold increase in gene transactivation with 1 μM)
Cc1ccc(S(=O)(=O)Nc2ccc(Oc3cnn(-c4ccc(C)cc4C)c3)cc2)cc1 [Example 14],PPARγ agonist activity,[2],* (<8 fold increase in gene transactivation with 10 μM)
Cc1ccc(S(=O)(=O)Nc2ccc(Oc3cnn(-c4ccc(C)cc4C)c3)c(Cl)c2)cc1 [Example 15],Inhibition of TS induced BAL neutrophil influx,[1]; [6],66%
same,Inhibition of TS induced BAL neutrophil influx,[1]; [7],69%
same,TS induced influx of neutrophils in the BAL (in words),[1],significantly inhibit
same,PPARγ agonist activity,[2],** (>8 fold increase in gene transactivation with 10 μM)
same,plasma AUC following i.v. dosing (in words),[3],low
same,oral bioavailability (in words),[3],low
same,AUC,[3]; [8],170 ± 60 ng·h/mL
same,AUC,[3]; [9],1 ± 2 ng·h/mL
CN(CCOc1ccc(CC2SC(=O)NC2=O)cc1)c1ccccn1 (stereo not shown) [Rosiglitazone],plasma AUC following an i.v. dose (in words),[4]; i.v.,high
same,oral bioavailability (in words),[4]; oral vs i.v. plasma AUC,high
same,Plasma AUC following 1 mg/kg i.v. dose,"[4]; FDA Pharmacology review data, derived from 0.4 mg/kg i.v. dose PK data",13.75*** μg*hr/ml
same,Plasma AUC following 1 mg/kg oral dose,"[4]; FDA Pharmacology review data, derived from 0.4 mg/kg oral dose PK data",14.28*** μg*hr/ml
